Source: article PMC9820814, “In Vitro Reconstitution of the Melanin Pathway’s Catalytic Activities Using Tyrosinase Nanoparticles” (International Journal of Molecular Sciences, 2022)

Key:
TYRP1 = molecular target: T1, TYRP1 (Homo sapiens, UniProt P17643); assay: DHICA oxidation, IQCA absorbance at […] nm; type: biochemical; settings: 1.5 mM DHICA; pH 7.4; 37 °C; 24 h; no MBTH
T1 construct: recombinant truncated intra-melanosomal domain, C-terminal part with transmembrane helix removed, purified on His-Trap; baculovirus / T. ni larvae; ~59 kDa

TYR = molecular target: T2, TYR (Homo sapiens, UniProt P14679); assay: diphenol oxidase activity, dopachrome absorbance at […] nm, Michaelis-Menten fit; type: biochemical; settings: free enzyme; 10 min incubation; 10 mM NaPO4 pH 7.4; 37 °C; unit printed mM^−1 (sic, mM meant)
T2 construct: recombinant truncated intra-melanosomal domain, C-terminal part with transmembrane helix removed, His-tagged; baculovirus / T. ni larvae
T2 sequence (P14679 19-469 limits assumed): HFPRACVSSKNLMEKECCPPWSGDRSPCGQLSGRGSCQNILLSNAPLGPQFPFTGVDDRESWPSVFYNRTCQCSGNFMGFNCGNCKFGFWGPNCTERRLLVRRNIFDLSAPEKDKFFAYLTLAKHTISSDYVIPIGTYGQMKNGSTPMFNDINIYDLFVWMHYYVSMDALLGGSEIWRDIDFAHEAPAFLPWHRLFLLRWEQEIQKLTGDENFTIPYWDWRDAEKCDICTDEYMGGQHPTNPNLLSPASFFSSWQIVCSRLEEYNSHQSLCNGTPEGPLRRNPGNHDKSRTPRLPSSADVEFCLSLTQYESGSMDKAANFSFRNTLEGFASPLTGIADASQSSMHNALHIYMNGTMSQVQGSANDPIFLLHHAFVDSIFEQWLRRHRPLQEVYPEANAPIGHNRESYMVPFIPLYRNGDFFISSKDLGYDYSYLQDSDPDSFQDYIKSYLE

T1 sequence (P17643 25-477 limits assumed): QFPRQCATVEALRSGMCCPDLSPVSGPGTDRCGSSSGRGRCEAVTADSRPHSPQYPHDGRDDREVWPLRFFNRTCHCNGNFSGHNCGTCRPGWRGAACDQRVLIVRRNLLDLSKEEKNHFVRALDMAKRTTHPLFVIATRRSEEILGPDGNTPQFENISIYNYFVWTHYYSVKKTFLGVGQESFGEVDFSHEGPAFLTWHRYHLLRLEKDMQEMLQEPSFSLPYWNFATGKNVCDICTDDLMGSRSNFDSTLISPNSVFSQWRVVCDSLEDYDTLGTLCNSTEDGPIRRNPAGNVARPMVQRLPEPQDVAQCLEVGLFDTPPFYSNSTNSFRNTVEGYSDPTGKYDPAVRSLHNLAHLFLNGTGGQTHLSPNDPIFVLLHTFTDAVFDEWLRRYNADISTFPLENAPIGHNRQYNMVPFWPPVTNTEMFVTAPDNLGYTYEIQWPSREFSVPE

SMILES	DHICA oxidation, IQCA absorbance at 560 nm (TYRP1)	Km (mM^-1) / Tyr (TYR)
O=C(O)c1cc2cc(O)c(O)cc2[nH]1 [DHICA]	the spectrum of the reaction shows the formation of a peak corresponding to a new product	–
N[C@@H](Cc1ccc(O)c(O)c1)C(=O)O [L-DOPA]	–	0.241 ± 0.069 mM⁻¹
